{"source": "paper PMC11405833", "about": "“Targeted sulfur(VI) fluoride exchange-mediated covalent modification of a tyrosine residue in the catalytic pocket of tyrosyl-DNA phosphodiesterase 1” (Communications Chemistry, 2024)", "key": {"[1]": {"molecular_target": "T1, recombinant full-length TDP1 (Homo sapiens, UniProt Q9NUW8)", "T1 sequence (Q9NUW8 whole entry)": "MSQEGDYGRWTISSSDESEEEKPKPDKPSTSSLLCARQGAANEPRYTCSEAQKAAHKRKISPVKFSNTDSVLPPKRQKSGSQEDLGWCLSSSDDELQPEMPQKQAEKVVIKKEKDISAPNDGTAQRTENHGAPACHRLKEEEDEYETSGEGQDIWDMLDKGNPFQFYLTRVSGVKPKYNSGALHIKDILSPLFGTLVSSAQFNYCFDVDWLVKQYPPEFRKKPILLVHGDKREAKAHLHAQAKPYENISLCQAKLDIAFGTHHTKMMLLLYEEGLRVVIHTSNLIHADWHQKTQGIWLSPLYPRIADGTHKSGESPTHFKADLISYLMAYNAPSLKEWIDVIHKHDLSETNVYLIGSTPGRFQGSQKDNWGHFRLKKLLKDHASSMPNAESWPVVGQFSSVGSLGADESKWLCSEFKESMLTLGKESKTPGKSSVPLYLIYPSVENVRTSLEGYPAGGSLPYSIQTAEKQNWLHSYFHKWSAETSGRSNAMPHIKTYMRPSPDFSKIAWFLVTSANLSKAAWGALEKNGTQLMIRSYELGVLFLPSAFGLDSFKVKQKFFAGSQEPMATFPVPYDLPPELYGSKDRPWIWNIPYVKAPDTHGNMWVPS", "design": "was incubated for 15 min. with recombinant full-length TDP1 or TDP1^Y204F (40 pM); method as in PMID 31199869", "conditions": "reported data; cited from earlier work"}, "[2]": {"molecular_target": "T1, recombinant full-length TDP1", "assay": "gel-based TDP1 fluorescence assay in vitro (wild-type TDP1)", "method": "The inhibition of TDP1 or TDP1^Y204F was also conducted using a gel-based assay as previously described[13],[14]. Briefly, the DNA substrate (1 nM, 5′Cy5-[sequence]-pY-3′, Cy5-N14Y) was incubated for 15 min. with recombinant full-length TDP1 or TDP1^Y204F (40 pM) in the absence or presence of inhibitors for 5 min. or 3 hr preincubation time as shown in Table 1 at room temperature (22 °C) in TDP1 reaction buffer (50 mM Tris HCl, pH 7.5, 80 mM KCl, 2 mM EDTA, 1 mM DTT, 40 µg/mL BSA and 0.01% Tween-20). […] Samples were then subjected to a 20% denaturing PAGE gel following by gel scanning using a Typhoon FLA 9500 scanner (GE Healthcare). The IC50 values of TDP1 inhibitors were calculated by comparing the percentage of cleavage product (5′Cy5-[sequence]-p-3′, Cy5-N14P) to DMSO control."}, "TDP1^Y204F": {"molecular_target": "T2, TDP1^Y204F (Homo sapiens, UniProt Q9NUW8, Y204F)", "T2 construct": "was incubated for 15 min. with recombinant full-length TDP1 or TDP1^Y204F (40 pM)", "T2 sequence (Q9NUW8 whole entry Y204F)": "as the sequence (Q9NUW8 whole entry) above, with Y204F counted along it", "assay": "gel-based TDP1 fluorescence assay in vitro (mutant TDP1 Y204F)", "format": "biochemical", "experimental": "The inhibition of TDP1 or TDP1^Y204F was also conducted using a gel-based assay as previously described[13],[14]. Briefly, the DNA substrate (1 nM, 5′Cy5-[…]-pY-3′, Cy5-N14Y) was incubated for 15 min. with recombinant full-length TDP1 or TDP1^Y204F (40 pM) in the absence or presence of inhibitors for 5 min. or 3 hr preincubation time as shown in Table 1 at room temperature (22 °C) in TDP1 reaction buffer (50 mM Tris HCl, pH 7.5, 80 mM KCl, 2 mM EDTA, 1 mM DTT, 40 µg/mL BSA and 0.01% Tween-20). […] Samples were then subjected to a 20% denaturing PAGE gel following by gel scanning using a Typhoon FLA 9500 scanner (GE Healthcare). The IC50 values of TDP1 inhibitors were calculated by comparing the percentage of cleavage product (5′Cy5-[…]-p-3′, Cy5-N14P) to DMSO control."}, "TDP1(148-608)": {"molecular_target": "T3, TDP1(148-608) (Homo sapiens, UniProt Q9NUW8)", "T3 construct": "The recombinant TDP1(148-608) (2 μg) in 50 μL of buffer", "T3 sequence (Q9NUW8 148-608)": "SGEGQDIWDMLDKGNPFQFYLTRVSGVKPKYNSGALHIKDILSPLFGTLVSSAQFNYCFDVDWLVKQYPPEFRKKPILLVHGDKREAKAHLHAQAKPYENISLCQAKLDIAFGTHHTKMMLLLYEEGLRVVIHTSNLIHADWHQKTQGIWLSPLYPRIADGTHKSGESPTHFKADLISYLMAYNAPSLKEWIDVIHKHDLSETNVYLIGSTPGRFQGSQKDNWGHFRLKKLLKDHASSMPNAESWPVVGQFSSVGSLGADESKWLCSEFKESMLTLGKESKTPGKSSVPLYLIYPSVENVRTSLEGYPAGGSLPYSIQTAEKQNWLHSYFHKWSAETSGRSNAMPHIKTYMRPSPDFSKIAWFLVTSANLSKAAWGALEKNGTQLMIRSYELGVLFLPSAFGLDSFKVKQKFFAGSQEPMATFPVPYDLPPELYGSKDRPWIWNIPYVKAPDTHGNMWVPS", "assay": "intact mass LC-MS analysis of covalent modification", "format": "binding", "conditions": "50 μM compound, overnight 25 °C, 1:65 enzyme/compound", "experimental": "The samples were incubated overnight at 25 °C with shaking at 500 rpm. The samples were diluted with water to 100 μL and analyzed by liquid chromatography coupled online with mass spectrometry (LC-MS)[67]. Separation was performed on a Vanquish Flex chromatographic system (Thermo) using a MabPac reversed-phase column (4 μm, 1500 Å, 3 ×50 mm, Thermo) maintained at 50 °C. The labeled proteins were resolved at 0.5 mL/min over a 15 min gradient of buffer B (47.5% acetonitrile, 47.5% isopropanol, 5% water, 0.2% formic acid (FA)) from 2 to 100% followed by re-equilibration at 2% buffer B (total run time 20 min) against buffer A (5% acetonitrile, 0.2% FA in water). The eluates from the column were introduced to an Exactive Plus EMR mass spectrometer (Thermo) through a heated electrospray ionization (HESI) source. Intact mass spectra were acquired over 500-2000 m/z window at 35,000 FT resolution (at 200 m/z), averaging 10 microscans, with an AGC target of 3 ×10^6, max injection time of 200 ms, 80% S-lens RF level, 20 V source-induced dissociation, and capillary temperature set at 275 °C. The resulting spectra were manually averaged followed by deconvolution using the ReSpect algorithm in BioPharma Finder 2.0 (Thermo). […]"}, "[3]": {"conditions": "TDP1 IC50, pre-incubation time 5 min with wild-type (WT) TDP1"}}, "note": "Where two headings read alike, the source gives them in different places.", "data": [{"smiles": "O=C(O)c1cnc2ccccc2c1O", "note": "[Compound 1a]", "values": [{"measurement": "IC50", "setting": "[1]", "value": 7.2, "unit": "mM"}]}, {"smiles": "O=C(O)c1c[nH]c2c(S(=O)(=O)O)cccc2c1=O", "note": "[Compound 2a]", "values": [{"measurement": "IC50", "setting": "[2]", "value": "4.61 ± 0.35", "unit": "mM"}]}, {"smiles": "O=C(O)c1c[nH]c2c(S(=O)(=O)Nc3ccccc3)cccc2c1=O", "note": "[Compound 2b]", "values": [{"measurement": "IC50", "setting": "[2]", "value": "> 9", "unit": "mM"}]}, {"smiles": "O=C(O)c1c[nH]c2c(S(=O)(=O)NCCc3ccccc3)cccc2c1=O", "note": "[Compound 2c]", "values": [{"measurement": "IC50", "setting": "[2]", "value": "> 9", "unit": "mM"}]}, {"smiles": "O=C(O)c1c[nH]c2c(S(=O)(=O)NCCCc3ccccc3)cccc2c1=O", "note": "[Compound 2d]", "values": [{"measurement": "IC50", "setting": "[2]; read-out: TDP1 IC50, WT TDP1, dash = no activity up to highest tested concentration", "value": "> 9", "unit": "mM"}]}, {"smiles": "O=C(O)c1c[nH]c2c(-c3ccccc3)cccc2c1=O", "note": "[Compound 3a]", "values": [{"measurement": "IC50", "setting": "[2]", "value": "5.17 ± 0.14", "unit": "mM"}]}, {"smiles": "O=C(O)c1c[nH]c2c(-c3cccc(OS(=O)(=O)F)c3)cccc2c1=O", "note": "[Compound 3d]", "values": [{"measurement": "IC50", "setting": "[2]; [3]", "value": "0.69 ± 0.04", "unit": "mM"}]}, {"smiles": "O=C(NCCc1ccccc1)c1ccc(-c2cccc3c(=O)c(C(=O)O)c[nH]c23)c(OS(=O)(=O)F)c1", "note": "[Compound 3g, 8-(2-((fluorosulfonyl)oxy)-4-(phenethylcarbamoyl)phenyl)-4-oxo-1,4-dihydroquinoline-3-carboxylic acid]", "values": [{"measurement": "IC50", "setting": "TDP1^Y204F", "value": "4.69 ± 1.26", "unit": "mM"}, {"measurement": "fold reduced inhibitory potency with mutant TDP1^Y204F vs WT", "setting": "TDP1^Y204F; 5 min pre-incubation", "value": 11, "unit": "fold"}, {"measurement": "mass shift of single covalent modification of TDP1(148-608) (loss of fluorine)", "setting": "TDP1(148-608)", "value": "+490.83 Da"}, {"measurement": "fold increase in inhibitory potency relative to parent compound 3c", "setting": "[2]", "value": "5 to 10", "unit": "fold"}, {"measurement": "fold increase in inhibitory potency compared with quinolone 1a", "setting": "[2]; 5 min pre-incubation, WT TDP1, vs 1a IC50 7.2 mM", "value": 18, "unit": "fold"}, {"measurement": "fold increase in TDP1 inhibitory potency compared to quinolone 3a", "setting": "[2]; 5 min pre-incubation, WT TDP1, vs 3a IC50 5.17 mM", "value": 13, "unit": "fold"}, {"measurement": "IC50", "setting": "[2]; [3]", "value": "0.41 ± 0.07", "unit": "mM"}, {"measurement": "IC50", "setting": "[2]; TDP1 IC50, pre-incubation time 3 h with WT TDP1", "value": "0.27 ± 0.03", "unit": "mM"}, {"measurement": "fold enhancement of IC50 by extending pre-incubation time from 5 min to 3 h", "setting": "[2]; WT TDP1", "value": 1.5, "unit": "fold"}]}]}
